Earlier results in US20240207240A1, “Method for Improving or Treating Cognitive Dysfunction Complicating HIV-associated Cryptococcal Meningitis with Lenalidomide” (The First Affiliated Hospital Zhejiang University School of …, priority 2022, published 2024).

Assays:
[1] = cited from earlier work
[2] = in vivo; cited from earlier work

SMILES | bioavailability [1] | side effects [2]
Nc1cccc2c1C(=O)N(C1CCC(=O)NC1=O)C2=O (stereo not drawn) [pomalidomide] | high | 
O=C1CCC(N2C(=O)c3ccccc3C2=O)C(=O)N1 (stereo not drawn) [thalidomide] | high | bone marrow suppression, cardiotoxicity, vascular thrombosis, and neurotoxicity
